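Grown in 96-well plates, cells were treated for 48 hours with each compound at five concentrations. Insufficient inhibition: endpoint recorded as highest concentration tested. The concentration for 50% growth inhibition is given as GI50.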 Calls of active or inactive are those of the source. Cut-off read from the data, not from the text of the source: active = GI50 up to about 1.1 µM and inactive = higher.
Legend:
Experiment in all cases: NCI-60 cell line screen, 48 h
[1] = tested on: A549
[2] = tested on: ACHN
[3] = tested on: CAKI-1
[4] = tested on: CCRF-CEM
[5] = tested on: COLO 205
[6] = tested on: DU-145
[7] = tested on: HCC 2998
[8] = tested on: HL-60
[9] = tested on: Hs-578T
[10] = tested on: M14
[11] = tested on: MCF7
[12] = tested on: MDA-MB-435
[13] = tested on: NCI-H23
[14] = tested on: OVCAR-3
[15] = tested on: OVCAR-4
[16] = tested on: SF-268
[17] = tested on: SK-MEL-2
[18] = tested on: SNB-75
[19] = tested on: SW-620
[20] = tested on: HOP-92

CNC(c1ccncc1)C(NC)c1ccncc1 (stereo not drawn)
GI50 [1]: > 100 µM (inactive)
GI50 [2]: > 100 µM (inactive)
GI50 [3]: > 100 µM (inactive)
GI50 [4]: > 100 µM (inactive)
GI50 [5]: > 100 µM (inactive)
GI50 [6]: > 100 µM (inactive)
GI50 [7]: > 100 µM (inactive)
GI50 [8]: > 100 µM (inactive)
GI50 [9]: 90.8 µM (inactive)
GI50 [10]: > 100 µM (inactive)
GI50 [11]: > 100 µM (inactive)
GI50 [12]: > 100 µM (inactive)
GI50 [13]: > 100 µM (inactive)
GI50 [14]: > 100 µM (inactive)
GI50 [15]: > 100 µM (inactive)
GI50 [16]: > 100 µM (inactive)
GI50 [17]: > 100 µM (inactive)
GI50 [18]: > 100 µM (inactive)
GI50 [19]: > 100 µM (inactive)

COc1ccc(-n2cnc3c(NC(CCSC)C(=O)O)ncnc32)cc1 (stereo not drawn)
GI50 [1]: > 100 µM (inactive)
GI50 [2]: > 100 µM (inactive)
GI50 [3]: > 100 µM (inactive)
GI50 [4]: > 100 µM (inactive)
GI50 [5]: > 100 µM (inactive)
GI50 [6]: > 100 µM (inactive)
GI50 [7]: > 100 µM (inactive)
GI50 [20]: 74.1 µM (inactive)
GI50 [9]: > 100 µM (inactive)
GI50 [10]: > 100 µM (inactive)
GI50 [11]: > 100 µM (inactive)
GI50 [12]: > 100 µM (inactive)
GI50 [13]: > 100 µM (inactive)
GI50 [14]: > 100 µM (inactive)
GI50 [15]: > 100 µM (inactive)
GI50 [16]: > 100 µM (inactive)
GI50 [17]: > 100 µM (inactive)
GI50 [18]: > 100 µM (inactive)
GI50 [19]: > 100 µM (inactive)

O=C1c2ccccc2NC(=S)[C@@H]2CCCN12
GI50 [1]: > 100 µM (inactive)
GI50 [2]: > 100 µM (inactive)
GI50 [3]: > 100 µM (inactive)
GI50 [4]: > 100 µM (inactive)
GI50 [5]: > 100 µM (inactive)
GI50 [6]: > 100 µM (inactive)
GI50 [7]: > 100 µM (inactive)
GI50 [20]: > 100 µM (inactive)
GI50 [9]: > 100 µM (inactive)
GI50 [10]: > 100 µM (inactive)
GI50 [11]: > 100 µM (inactive)
GI50 [12]: > 100 µM (inactive)
GI50 [13]: > 100 µM (inactive)
GI50 [14]: > 100 µM (inactive)
GI50 [15]: > 100 µM (inactive)
GI50 [16]: > 100 µM (inactive)
GI50 [17]: > 100 µM (inactive)
GI50 [18]: > 100 µM (inactive)
GI50 [19]: > 100 µM (inactive)

N#CCCN(CCC#N)c1ccc(C(=N/c2ccc(F)cc2)/N=N/c2ccc(Cl)cc2)cc1
GI50 [1]: > 100 µM (inactive)
GI50 [2]: > 100 µM (inactive)
GI50 [3]: > 100 µM (inactive)
GI50 [4]: > 100 µM (inactive)
GI50 [5]: > 100 µM (inactive)
GI50 [6]: > 100 µM (inactive)
GI50 [7]: > 100 µM (inactive)
GI50 [20]: > 100 µM (inactive)
GI50 [9]: > 100 µM (inactive)
GI50 [10]: > 100 µM (inactive)
GI50 [11]: > 100 µM (inactive)
GI50 [12]: > 100 µM (inactive)
GI50 [13]: > 100 µM (inactive)
GI50 [14]: > 100 µM (inactive)
GI50 [15]: > 100 µM (inactive)
GI50 [16]: > 100 µM (inactive)
GI50 [18]: > 100 µM (inactive)
GI50 [19]: > 100 µM (inactive)

COC(=O)NC(C(F)(F)F)(C(F)(F)F)P1(=O)OCCCO1
GI50 [1]: 38.5 µM (inactive)
GI50 [2]: 21.4 µM (inactive)
GI50 [4]: 12.6 µM (inactive)
GI50 [5]: 23 µM (inactive)
GI50 [6]: 53.8 µM (inactive)
GI50 [8]: 16.6 µM (inactive)
GI50 [20]: 35.8 µM (inactive)
GI50 [9]: 37.4 µM (inactive)
GI50 [10]: 24.8 µM (inactive)
GI50 [11]: 31.3 µM (inactive)
GI50 [12]: 17.2 µM (inactive)
GI50 [13]: 20.2 µM (inactive)
GI50 [14]: 28.3 µM (inactive)
GI50 [15]: 32.6 µM (inactive)
GI50 [16]: 25.7 µM (inactive)
GI50 [18]: 47.6 µM (inactive)
GI50 [19]: 20.7 µM (inactive)

CCC1(c2ccc(N3C(=O)c4cccc5cc([N+](=O)[O-])cc(c45)C3=O)cc2)CCC(=O)NC1=O (stereo not drawn)
GI50 [1]: 55.5 µM (inactive)
GI50 [2]: 11.5 µM (inactive)
GI50 [3]: 14.2 µM (inactive)
GI50 [4]: 7.74 µM (inactive)
GI50 [5]: 9.57 µM (inactive)
GI50 [6]: > 44.9 µM (inactive)
GI50 [7]: 30.7 µM (inactive)
GI50 [20]: 2.16 µM (inactive)
GI50 [9]: 16.1 µM (inactive)
GI50 [10]: 61.5 µM (inactive)
GI50 [11]: 29.9 µM (inactive)
GI50 [12]: 24.3 µM (inactive)
GI50 [13]: 25.5 µM (inactive)
GI50 [14]: 20.7 µM (inactive)
GI50 [15]: 12.6 µM (inactive)
GI50 [16]: 15.1 µM (inactive)
GI50 [17]: > 100 µM (inactive)
GI50 [18]: 7.05 µM (inactive)
GI50 [19]: 11.4 µM (inactive)

N#CCN(CC#N)C1CC=CCC1N(CC#N)CC#N (stereo not drawn)
GI50 [1]: > 100 µM (inactive)
GI50 [2]: > 100 µM (inactive)
GI50 [3]: > 100 µM (inactive)
GI50 [4]: > 100 µM (inactive)
GI50 [5]: > 100 µM (inactive)
GI50 [6]: > 100 µM (inactive)
GI50 [8]: > 100 µM (inactive)
GI50 [20]: > 100 µM (inactive)
GI50 [9]: > 100 µM (inactive)
GI50 [10]: > 100 µM (inactive)
GI50 [11]: > 100 µM (inactive)
GI50 [12]: > 100 µM (inactive)
GI50 [13]: > 100 µM (inactive)
GI50 [14]: > 100 µM (inactive)
GI50 [15]: > 100 µM (inactive)
GI50 [16]: > 100 µM (inactive)
GI50 [17]: > 100 µM (inactive)
GI50 [19]: > 100 µM (inactive)

CCSc1c(C)c2c(n(Cc3ccc(OC)cc3)c1=O)Cc1ccccc1C2
GI50 [1]: 21.9 µM (inactive)
GI50 [2]: 10.3 µM (inactive)
GI50 [3]: 44 µM (inactive)
GI50 [4]: 2.02 µM (inactive)
GI50 [5]: 35.6 µM (inactive)
GI50 [6]: 24.7 µM (inactive)
GI50 [7]: 13.6 µM (inactive)
GI50 [8]: 6.17 µM (inactive)
GI50 [9]: 24.5 µM (inactive)
GI50 [10]: 10.9 µM (inactive)
GI50 [11]: 24.7 µM (inactive)
GI50 [12]: 25.1 µM (inactive)
GI50 [13]: 20 µM (inactive)
GI50 [14]: 20.1 µM (inactive)
GI50 [15]: 21.4 µM (inactive)
GI50 [16]: 11.8 µM (inactive)
GI50 [17]: 8.3 µM (inactive)
GI50 [18]: 21.9 µM (inactive)
GI50 [19]: 15.5 µM (inactive)

CCc1n[nH]c(=O)n1O
GI50 [1]: > 100 µM (inactive)
GI50 [2]: > 100 µM (inactive)
GI50 [3]: > 100 µM (inactive)
GI50 [4]: > 100 µM (inactive)
GI50 [5]: > 100 µM (inactive)
GI50 [6]: > 100 µM (inactive)
GI50 [8]: > 100 µM (inactive)
GI50 [20]: 0.0738 µM (active)
GI50 [9]: > 100 µM (inactive)
GI50 [11]: > 100 µM (inactive)
GI50 [12]: > 100 µM (inactive)
GI50 [13]: > 100 µM (inactive)
GI50 [14]: > 100 µM (inactive)
GI50 [15]: > 100 µM (inactive)
GI50 [16]: > 100 µM (inactive)
GI50 [17]: > 100 µM (inactive)
GI50 [19]: > 100 µM (inactive)

COC(=NCCC1=CCCCC1)OC
GI50 [1]: 69.3 µM (inactive)
GI50 [2]: > 100 µM (inactive)
GI50 [3]: > 100 µM (inactive)
GI50 [4]: 8.71 µM (inactive)
GI50 [5]: 16.3 µM (inactive)
GI50 [6]: > 100 µM (inactive)
GI50 [7]: 22 µM (inactive)
GI50 [20]: 31.6 µM (inactive)
GI50 [9]: > 100 µM (inactive)
GI50 [10]: 21.1 µM (inactive)
GI50 [11]: 47.6 µM (inactive)
GI50 [12]: 71.6 µM (inactive)
GI50 [13]: 58.6 µM (inactive)
GI50 [14]: > 100 µM (inactive)
GI50 [15]: > 100 µM (inactive)
GI50 [16]: > 100 µM (inactive)
GI50 [17]: 87.7 µM (inactive)
GI50 [18]: 71.6 µM (inactive)
GI50 [19]: 62.8 µM (inactive)

Nc1ccc(CCSSCCc2ccc(N)cc2)cc1
GI50 [1]: 35.1 µM (inactive)
GI50 [2]: 29.6 µM (inactive)
GI50 [3]: 26.4 µM (inactive)
GI50 [4]: 1.38 µM (inactive)
GI50 [5]: 41.1 µM (inactive)
GI50 [6]: 28.3 µM (inactive)
GI50 [7]: 17.6 µM (inactive)
GI50 [20]: 34.5 µM (inactive)
GI50 [9]: 16.2 µM (inactive)
GI50 [10]: 30 µM (inactive)
GI50 [11]: 29.7 µM (inactive)
GI50 [12]: 26.9 µM (inactive)
GI50 [13]: 29.7 µM (inactive)
GI50 [14]: 31.6 µM (inactive)
GI50 [15]: 28.6 µM (inactive)
GI50 [16]: 18.4 µM (inactive)
GI50 [17]: 20.2 µM (inactive)
GI50 [18]: 30.9 µM (inactive)
GI50 [19]: 30 µM (inactive)
